Measurements taken from paper PMC6631887, “In vitro and in vivo characterization of anti-malarial acylphenoxazine derivatives prepared from basic blue 3” (Malaria Journal, 2019).
Values joined by “and” are separate entries in the source; they are usually repeats but may differ in a detail not shown here. Equal entries are not always repeated. Where two headings read alike, the source gives them in different places.

Experiments:
Plasmodium berghei NK65 = assay: In vivo anti-malarial activity, rodent malaria model, oral administration; design: species or system Plasmodium berghei (in ICR mice); conditions: for MSD (mean survival day) / % suppression on day 4: mice; for MSD (mean survival day): observed to day 30; for % suppression on day 4: repeated for 3 consecutive days, parasitaemia vs control
Experimental: The in vivo anti-malarial efficacy of ITT-001 to 006 was evaluated using the rodent malaria parasite P. berghei NK65 as described by Fidock et al., with some modifications. The parasite was maintained by syringe passage every week in female ICR mice (4–8-week-old; body weight, 25–27 g, Sankyo Lab Service, Tokyo, Japan). On day 0, a 200 µL aliquot of saline containing 2 × 10^7 iRBCs prepared from the pre-infected mice was injected intravenously into the mice. After 4 h, basic blue 3 and ITT-001 to 006 dissolved or suspended in 5% (w/v) methyl cellulose 400 solution (FUJIFILM Wako Pure Chemical, Osaka, Japan) were orally administered (100 mg/kg body weight of basic blue 3 and ITT-001 to 006 and 50 mg/kg body weight of ITT-004) to the mice (four and five groups for basic blue 3 and ITT-001 to 006, respectively). The control group (five mice/group) was treated with approximately 100 µL of the vehicle. This treatment was repeated for 3 consecutive days. On day 4, peripheral blood samples were obtained from the tail veins of the mice and thin blood smears stained with Diff-Quik stain kit (Sysmex) were observed under a Leica DM6000B microscope (Leica Microsystems, Wetzlar, Germany). Parasitaemia was determined by counting over 10 fields of view. The suppression rate (%) was calculated as the difference in parasitaemia between the test and control groups. The mean survival day (MSD) was calculated from the number of the surviving mice on day 30. The surviving mice were cured on day 30. Kaplan–Meier curves were generated to graphically display the efficacy using GraphPad Prism version 5.0.

[1] = tested on: Plasmodium falciparum field isolate MRA-1239 (ART-sensitive); assay: In vitro anti-malarial efficacy (growth inhibition), XN-30 analyzer, MRA-1239 isolate; assay type: cell-based; conditions: read-out: IC50 MRA-1239
[2] = tested on: Plasmodium falciparum W2 (CQ- and PYR-resistant); assay: In vitro anti-malarial efficacy (growth inhibition), XN-30 analyzer, W2 strain; assay type: cell-based; conditions: read-out: IC50 W2
[3] = tested on: Plasmodium falciparum 3D7 (CQ- and PYR-sensitive); assay: In vitro anti-malarial efficacy (growth inhibition), XN-30 analyzer, 3D7 strain; assay type: cell-based; conditions: read-out: IC50 3D7
[4] = Cytotoxic assay (Cell Counting Kit-8), HEK293T; assay type: cell-based; conditions: human, HEK293T cells; 48 h culture, CCK-8; mean ± SEM, three experiments
Experimental: (§1) HepG2 (JCRB1054) and HEK293T cell lines were obtained from the Japanese Collection of Research Bioresources (JCRB, Osaka, Japan) and Prof. Yoshiharu Matsuura (Osaka University, Osaka, Japan), respectively. The cells were cultured in Dulbecco’s modified Eagle’s medium (DMEM (1.0 g/L glucose) with L-glutamine and sodium pyruvate; Nacalai Tesque, Kyoto, Japan) supplemented with 10% (v/v) fetal bovine serum (FBS; Gibco-BRL, Grand Island, NY, USA) in a humidified incubator with 5% CO2 at 37 °C. For the cytotoxic assay, the cells (5 × 10^3/well) were seeded in a 96-well plate. […] Cell viability was measured using a Cell Counting Kit-8 (Dojindo) according to the manufacturer’s instructions. Briefly, 10 µL CCK-8 reagent was added to each well containing culture medium and incubated for 2 h under standard culture conditions. The absorbance of the sample was measured at 450 nm using a PowerWave HT microplate spectrophotometer (BioTek Instruments, Winooski, VT, USA). The cell viability was expressed as a percentage of the absorbance of the untreated control cells after subtracting the appropriate background intensity. The CC50 (mean ± SEM) was calculated as described in IC50. The SI, which is the ratio between the cytotoxicity and anti-malarial activity, was calculated according to the following equation. SI=mean CC50/mean IC50.

[5] = tested on: Plasmodium falciparum field isolate MRA-1240 (ART-resistant); assay: In vitro anti-malarial efficacy (growth inhibition), XN-30 analyzer, MRA-1240 isolate; assay type: cell-based; conditions: read-out: IC50 MRA-1240
[6] = Cytotoxic assay (Cell Counting Kit-8), HepG2; assay type: cell-based; conditions: human, HepG2 cells; 48 h culture, CCK-8; mean ± SEM, three experiments
Experimental: as §1

[7] = Measurement of fluorescence spectrum (self-fluorescence); assay type: physicochemical; conditions: 10 µM in saline containing 1% DMSO, excitation 592 nm, emission 630-730 nm
Experimental: Fluorescence spectrum of basic blue 3 and ITT-001 to 006 (10 µM) was obtained in saline containing 1% DMSO at room temperature. The compounds were excited at 592 nm (bandpass width, 5 nm) and their emission spectra, 630 nm to 730 nm, were measured with a RF-5300PC Spectro fluorophotometer (Shimadzu).

[8] = tested on: Plasmodium falciparum 3D7 (ring-form-synchronized); assay: Characterization of anti-malarial activity in vitro, 24 h treatment, XN-30 analyzer and light microscopy; assay type: cell-based; conditions: 3D7, 24 h treatment; for concentration at which parasites were arrested or killed with the ring-form: XN-30 analyzer (Fig. 2i); for concentration at which trophozoites appeared: XN-30 analyzer (Fig. 2ii)
Experimental: The ring-form-synchronized parasite (3D7 strain) was treated with the indicated concentrations of basic blue 3 and ITT-001 to 006 for 24 h for flow cytometric and morphological analyses using an automated haematology analyzer, XN-30, and light microscope, respectively.
For the flow cytometric analysis, the XN30 analyzer was equipped with a prototype algorithm for cultured P. falciparum [prototype; software version: 01-03, (build 16)] and specific reagents were used ([…] DCL, SULFOLYSER, Lysercell M, and Fluorocell M) (Sysmex, Kobe, Japan). Approximately 100 µL of the culture suspension diluted with 100 µL phosphate-buffered saline was added into a BD Microtainer MAP Microtube for Automated Process K2 EDTA 1.0 mg tube (Becton–Dickinson and Co., Franklin Lakes, NJ, USA) and loaded onto the XN-30 analyzer with an auto-sampler as described in the instrument’s manual (Sysmex). […] Horizontal and vertical axes represent the intensities of side fluorescent light (SFL, which corresponds to DNA content) and forward scattered light (FSC, indicating iRBC size), respectively. Colours indicate the following based on the default setting: red, ring-form; orange, trophozoite; purple, schizont; and blue, polychromatic RBC. Once parasites replicate DNA, dots are plotted to the right side on the M scattergram according to the increase in DNA content. The parasitaemias (total, MI-RBC%; ring-form, RNG-RBC%; trophozoite, TRPZ-RBC%; and schizont, SCHZ-RBC%) were automatically reported.
A standard thin blood smear was fixed with 100% methanol for 10 min and stained with 10% Giemsa working solution, pH 7.2 (Merck KGaA, Darmstadt, Germany) for 13 min.

[9] = oral 100 mg/kg, surviving mice considered cured
[10] = 48 h treatment, ring-form-synchronized, XN-30 analyzer, mean ± SEM, three experiments
[11] = Plasmodium falciparum, W2, 48 h, 48 h treatment, ring-form-synchronized, XN-30 analyzer, mean ± SEM, three experiments
[12] = Plasmodium falciparum, 3D7, 48 h, 48 h treatment, ring-form-synchronized, XN-30 analyzer, mean ± SEM, three experiments

Row | SMILES | MSD (mean survival day) (Plasmodium berghei NK65; oral 100 mg/kg) [days] | % suppression on day 4 (Plasmodium berghei NK65; oral 100 mg/kg) [%] | # of survived mice on day 30 (Plasmodium berghei NK65; [9]) | IC50 [1, 10] [µM] | IC50 [2, 11] [µM] | IC50 [3, 12] [µM] | CC50 at 48 h [4] [µM] | IC50 [5, 10] [µM] | CC50 at 48 h [6] [µM] | maximum fluorescence intensity [7] | other results
1 | CCN(CC)c1ccc2c(c1)Oc1cc(N(CC)CC)ccc1N2C(=O)C(C)(C)C [ITT-002, 1-(3,7-Bis(diethylamino)-10H-phenoxazin-10-yl)-2,2-dimethylpropan-1-one] | 19.2 | > 99 | 2/5 | 0.0207 ± 0.0016 | 0.0104 ± 0.0028 | 0.0107 ± 0.0015 | 0.2 ± 0.021 | 0.0244 ± 0.0037 | > 50 | – | –
2 | CCN(CC)c1ccc2c(c1)Oc1cc(N(CC)CC)ccc1N2C(C)=O [ITT-001, 1-(3,7-Bis(diethylamino)-10H-phenoxazin-10-yl)ethanone] | 20.4 | > 99 | 3/5 | 0.0346 ± 0.0091 | 0.0111 ± 0.0018 | 0.0112 ± 0.0013 | 0.32 ± 0.042 | 0.039 ± 0.0112 | 4 ± 0.85 | – | –
3 | CCN(CC)c1ccc2c(c1)Oc1cc(N(CC)CC)ccc1N2C(=O)c1ccc(F)cc1 [ITT-006, (3,7-Bis(diethylamino)-10H-phenoxazin-10-yl)(4-fluorophenyl)methanone] | 13.0 | 91.5 | 0/5 | 0.0275 ± 0.0034 | 0.016 ± 0.0045 | 0.0106 ± 0.0016 | 13.6 ± 3 | 0.0294 ± 0.0058 | > 50 | less than 3 a.u. | –
4 | CCN(CC)CC(=O)N1c2ccc(N(CC)CC)cc2Oc2cc(N(CC)CC)ccc21.Cl [ITT-005, 1-(3,7-Bis(diethylamino)-10H-phenoxazin-10-yl)-2-(diethylamino)ethanone hydrochloride] | 14.0 | > 99 | 1/5 | 0.13 ± 0.0093 | – | – | 0.73 ± 0.093 | 0.184 ± 0.0301 | 4.6 ± 0.26 | – | concentration at which parasites were arrested or killed with the ring-form [8]: 5000 nM; concentration at which trophozoites appeared [8]: 150 nM
5 | C[C@@H]1CC[C@H]2[C@@H](C)C(=O)O[C@@H]3O[C@@]4(C)CC[C@@H]1[C@]32OO4 [ART, artemisinin, reference compound] | – | – | – | 0.0055 ± 1.8e-05 | – | – | – | 0.0132 ± 0.0014 | – | – | –
6 | CCN(CC)c1ccc2c(c1)Oc1cc(N(CC)CC)ccc1N2C(=O)c1ccccc1 [ITT-004, (3,7-Bis(diethylamino)-10H-phenoxazin-10-yl)(phenyl)methanone] | 29.4 | > 99 | – | 0.0264 ± 0.0029 | 0.0123 ± 0.0027 | 0.0113 ± 0.0024 | 10.5 ± 3.4 | 0.0305 ± 0.002 | > 50 | less than 3 a.u. | MSD (mean survival day) (Plasmodium berghei NK65; oral 50 mg/kg): 11.8 days; % suppression on day 4 (Plasmodium berghei NK65; oral 50 mg/kg): > 99%; # of survived mice on day 30 (Plasmodium berghei NK65; oral 50 mg/kg): 0/5; # of survived mice on day 30 (Plasmodium berghei NK65; oral 100 mg/kg, surviving mice considered cured, 100 mg/kg): four of five and 4 out of 5 and 4/5
7 | CCN(CC)c1ccc2c(c1)Oc1cc(N(CC)CC)ccc1N2C(=O)C1CC1 [ITT-003] | 21.0 | > 99 | 2/5 | 0.0249 ± 0.0031 | 0.0096 ± 0.0021 | 0.0098 ± 0.001 | 9.2 ± 3.8 | 0.0313 ± 0.0098 | > 50 | – | –
8 | CCN(CC)CCCC(C)Nc1ccnc2cc(Cl)ccc12 (stereo not shown) [CQ, chloroquine, reference compound] | – | – | – | – | – | – | – | – | – | – | IC50 ([1]; 48 h): 0.0386 ± 0.0052 µM; IC50 ([2]; Plasmodium falciparum, W2, 48 h): 0.225 ± 0.0232 µM; IC50 ([3]; Plasmodium falciparum, 3D7, 48 h): 0.0086 ± 0.00021 µM; IC50 ([5]; 48 h): 0.058 ± 0.0026 µM
9 | CCN(CC)c1ccc2nc3ccc(=[N+](CC)CC)cc-3oc2c1 [basic blue 3] | 20.3 | > 99 | 1/4 | 0.0052 ± 0.0011 | ~0.004 | ~0.004 | 0.021 ± 0.0042 | 0.0059 ± 0.00068 | 1 ± 0.064 | 775 a.u. | concentration at which parasites were arrested or killed with the ring-form [8]: 15 nM; concentration at which trophozoites appeared [8]: 0.5 nM; IC50 [2, 10]: 0.0048 ± 0.00053 µM; IC50 [3, 10]: 0.0032 ± 0.00019 µM
